According to PubChem BioAssay (NCI):
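In this assay, cells in 96-well plates receive the compound at five concentrations for 48 hours. Endpoints are linearly interpolated between the surrounding concentrations. Abbreviation: GI50, concentration required for 50% inhibition of growth. At the TGI there is no net growth.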

How the values were obtained:
Experiment in all cases: inhibition of tumour cell growth, NCI panel, 48 h
[1] = test system: UO-31 renal
[2] = test system: CCRF-CEM leukemia
[3] = test system: UACC-62 melanoma
[4] = test system: SNB-75 CNS
[5] = test system: SK-MEL-2 melanoma
[6] = test system: MOLT-4 leukemia
[7] = test system: HT29 colon
[8] = test system: SK-MEL-5 melanoma
[9] = test system: NCI-H226 lung
[10] = test system: K-562 leukemia
[11] = test system: MDA-MB-435
[12] = test system: 786-0 renal
[13] = test system: RPMI-8226 leukemia
[14] = test system: NCI-H23 lung
[15] = test system: COLO 205 colon
[16] = test system: RXF 393 renal
[17] = test system: MALME-3M melanoma
[18] = test system: M14 melanoma
[19] = test system: SN12C renal
[20] = test system: HCT-116 colon
[21] = test system: HCT-15 colon
[22] = test system: HCC-2998 colon
[23] = test system: OVCAR-4 ovarian
[24] = test system: SF-295 CNS
[25] = test system: MCF7 breast
[26] = test system: UACC-257 melanoma
[27] = test system: NCI-H460 lung
[28] = test system: SW-620 colon

Structure (SMILES): O=C(N/N=C/c1ccc(Cl)cc1Cl)c1ccccc1Nc1cccc(C(F)(F)F)c1
- GI50 [1]: 3.14 µM
- TGI [1]: 22.1 µM
- GI50 [2]: 3.51 µM
- TGI [2]: 19.3 µM
- GI50 [3]: 13.3 µM
- TGI [3]: 58.4 µM
- GI50 [4]: 2550 nM
- TGI [4]: 9.71 µM
- GI50 [5]: 2760 nM
- TGI [5]: 10.7 µM
- GI50 [6]: 4.22 µM
- TGI [6]: 40 µM
- GI50 [7]: 14.4 µM
- TGI [7]: > 100 µM
- GI50 [8]: 26.5 µM
- TGI [8]: > 100 µM
- GI50 [9]: 3.67 µM
- TGI [9]: 43.5 µM
- GI50 [10]: 4.86 µM
- TGI [10]: > 100 µM
- GI50 [11]: 22.3 µM
- TGI [11]: > 100 µM
- GI50 [12]: 6.74 µM
- TGI [12]: 31 µM
- GI50 [13]: 2870 nM
- TGI [13]: 46.3 µM
- GI50 [14]: 5.93 µM
- TGI [14]: 32.8 µM
- GI50 [15]: 2730 nM
- TGI [15]: 9.37 µM
- GI50 [16]: 2240 nM
- TGI [16]: 4.41 µM
- GI50 [17]: 2620 nM
- TGI [17]: 10.5 µM
- GI50 [18]: 5.51 µM
- TGI [18]: 35.3 µM
- GI50 [19]: 7.66 µM
- TGI [19]: 48.2 µM
- GI50 [20]: 5.62 µM
- TGI [20]: 29.9 µM
- GI50 [21]: 30.5 µM
- TGI [21]: > 100 µM
- GI50 [22]: 8.52 µM
- TGI [22]: > 100 µM
- GI50 [23]: 2940 nM
- TGI [23]: 12.4 µM
- GI50 [24]: 2550 nM
- TGI [24]: 8.8 µM
- GI50 [25]: 11.3 µM
- TGI [25]: > 100 µM
- GI50 [26]: 4.27 µM
- TGI [26]: 25.4 µM
- GI50 [27]: 6.98 µM
- TGI [27]: > 100 µM
- GI50 [28]: 8.63 µM
- TGI [28]: > 100 µM
